Key:
[1] = test system: α-isomaltosylglucosaccharide-forming enzyme from Arthrobacter globiformis A19; assay: Action on saccharides (TLC before and after enzymatic reaction); type: biochemical; parameters: key: −: it showed no change; +: it showed a slight reduction of the color spot of the substrate and the formation of other reaction product; ++: it showed a high reduction of the color spot of the substrate and the formationof other reaction product; +++: it showed a substantial disappearance of the substrate spot and the formation of other reaction product; details: two units/g substrate, substrate 2% (w/v), 30° C., pH 8.4, 24 hours
Description: (§1) It was tested whether saccharides can be used as substrates for the polypeptide of α-isomaltosylglucosaccharide-forming enzyme of the present invention. For the purpose, a solution of maltose, maltotriose, maltotetraose, maltopentaose, maltohexaose, maltoheptaose, isomaltose, isomaltotriose, panose, isopanose, trehalose, kojibiose, nigerose, neotrehalose, cellobiose, gentibiose, maltitol, maltotriitol, lactose, sucrose, erlose, selaginose, maltosyl glucoside, or isomaltosyl glucoside was prepared.
(§2) To each of the above solutions was added two units/g substrate of a purified polypeptide specimen of α-isomaltosylglucosaccharide-forming enzyme from either Bacillus globisporus C11 obtained by the method in Experiment 1-3, Bacillus globisporus N75 obtained by the method in Experiment 2-3, or Arthrobacter globiformis A19 obtained by the method in Experiment 3-3, and the resulting each solution was adjusted to give a substrate concentration of 2% (w/v) and incubated at 30° C. and pH 6.0, except for using pH 8.4 for the enzyme from Arthrobacter globiformis A19, for 24 hours. In order to analyze the saccharides in the reaction mixture before and after the enzymatic reaction, silica gel thin-layer chromatography (hereinafter, abbreviated as “TLC”) was carried out. After two-times development using, as a developer, a mixture solution of n-butanol, pyridine, and water (=6:4:1), and, as a thin-layer plate, “KIESELGEL 60”, an aluminum plate (20×20 cm) for TLC commercialized by Merck & Co., Inc., Rahway, USA, the saccharides in the reaction mixture were examined whether the enzyme acted or not by the coloration of sugars by the sulfuric acid-methanol method.

[2] = test system: α-isomaltosylglucosaccharide-forming enzyme from Bacillus globisporus C11; assay: as above; type: biochemical; parameters: key: −: it showed no change; +: it showed a slight reduction of the color spot of the substrate and the formation of other reaction product; ++: it showed a high reduction of the color spot of the substrate and the formationof other reaction product; +++: it showed a substantial disappearance of the substrate spot and the formation of other reaction product; details: two units/g substrate, substrate 2% (w/v), 30° C., pH 6.0, 24 hours
Description: as §1, §2

[3] = test system: α-isomaltosylglucosaccharide-forming enzyme from Bacillus globisporus N75; assay: as above; type: biochemical; parameters: key: −: it showed no change; +: it showed a slight reduction of the color spot of the substrate and the formation of other reaction product; ++: it showed a high reduction of the color spot of the substrate and the formationof other reaction product; +++: it showed a substantial disappearance of the substrate spot and the formation of other reaction product; details: two units/g substrate, substrate 2% (w/v), 30° C., pH 6.0, 24 hours
Description: as §1, §2

[4] = test system: polypeptide having α-isomaltosylglucosaccharide-forming enzyme activity, obtained in Experiment 1-3; assay: Reaction product from maltooligosaccharide (sugar composition by HPLC); type: biochemical, Bacillus globisporus C11; parameters: unit not given here; details: 1% (w/v) substrate, 35° C., pH 6.0, 8 hours; for Sugar composition of reaction mixture, substrate Maltopentaose: 0.1 unit/g-solid; for Sugar composition of reaction mixture, substrate Maltotetraose: 0.2 unit/g-solid; for Sugar composition of reaction mixture, substrate Maltotriose / Sugar composition of reaction mixture, substrate Mlatose: two units/g-solid
Description: To an aqueous solution containing one percent (w/v) of maltose, maltotriose, maltotetraose, or maltopentaose as a substrate was added the polypeptide having α-isomaltosylglucosaccgaride-forming enzyme activity, obtained in Experiment 1-3, in an amount of two units/g-solid for maltose and maltotriose, 0.2 unit/g-solid for maltotetraose, and 0.1 unit/g-solid for maltopentaose, followed by incubation at 35° C. and pH 6.0 for 8 hours. After stopping the enzymatic reaction by a 10-minutes incubation, sugar compositions in the reaction mixture were measured by HPLC using “YMC Pack ODS-AQ303”, a column commercialized by YMC Co., Ltd., Tokyo, Japan, at a column temperature of 40° C. and a flow rate of 0.5 ml/minutes of water, and using as a detector “RI-8012”, a differential refractometer commercialized by Tosoh Corporation, Tokyo, Japan.

Molecule | Enzyme action, A19 enzyme [1] | Enzyme action, C11 enzyme [2] | Enzyme action, N75 enzyme [3] | Sugar composition of reaction mixture, substrate Maltopentaose [4] | Sugar composition of reaction mixture, substrate Maltotetraose [4] | Sugar composition of reaction mixture, substrate Maltotriose [4] | Sugar composition of reaction mixture, substrate Mlatose [4]
O=C[C@H](O)[C@@H](O)[C@H](O[C@@H]1O[C@H](CO)[C@@H](O)[C@H](O)[C@H]1O)[C@H](O)CO [Cellobiose, cellobiose] | − | − | − |  |  |  | 
OC[C@H]1O[C@@H](OC[C@H]2OC(O)[C@H](O)[C@@H](O)[C@@H]2O)[C@H](O)[C@@H](O)[C@@H]1O (stereo partly drawn) [Gentibiose, gentibiose] | − | − | − |  |  |  | 
OC[C@H]1O[C@H](OC[C@H]2O[C@H](O[C@H]3[C@H](O)[C@@H](O)[C@@H](O[C@H]4[C@H](O)[C@@H](O)[C@@H](O)O[C@@H]4CO)O[C@@H]3CO)[C@H](O)[C@@H](O)[C@@H]2O)[C@H](O)[C@@H](O)[C@@H]1O [Glucosylmaltotriose, α-isomaltosylmaltose] |  |  |  | 0.0 | 6.8 | 31.5 | 2.4
OC[C@H]1O[C@H](OC[C@H]2OC(O)[C@H](O)[C@@H](O)[C@@H]2O)[C@H](O)[C@@H](O)[C@@H]1O (stereo partly drawn) [Isomaltose, isomaltose] | − | − | − | 0.0 | 0.0 | 0.0 | 0.5
OC[C@H]1O[C@H](OC[C@H]2O[C@H](OC[C@H]3OC(O)[C@H](O)[C@@H](O)[C@@H]3O)[C@H](O)[C@@H](O)[C@@H]2O)[C@H](O)[C@@H](O)[C@@H]1O (stereo partly drawn) [Isomaltotriose, isomaltotriose] | − | − | − |  |  |  | 
OC[C@H]1O[C@H](O[C@H]2[C@H](O)[C@@H](O)[C@@H](OC[C@H]3OC(O)[C@H](O)[C@@H](O)[C@@H]3O)O[C@@H]2CO)[C@H](O)[C@@H](O)[C@@H]1O (stereo partly drawn) [Isopanose, isopanose] | ++ | ++ | ++ |  |  |  | 
OC[C@H]1O[C@@H](O[C@H]2[C@H](O)[C@@H](O)C(O)O[C@@H]2CO)[C@H](O)[C@@H](O)[C@H]1O (stereo partly drawn) [Lactose, lactose] | − | − | − |  |  |  | 
OC[C@@H](O)[C@@H](O[C@H]1O[C@H](CO)[C@@H](O)[C@H](O)[C@H]1O)[C@H](O)[C@@H](O)CO [Maltitol, maltitol] | − | − | − |  |  |  | 
OC[C@H]1O[C@H](O[C@H]2O[C@H](CO)[C@@H](O[C@H]3O[C@H](CO)[C@@H](O)[C@H](O)[C@H]3O)[C@H](O)[C@H]2O)[C@H](O)[C@@H](O)[C@@H]1O [Maltosyl glucoside, maltosyl glucoside] | ++ | ++ | ++ |  |  |  | 
OC[C@H]1O[C@H](O[C@H]2[C@H](O)[C@@H](O)[C@@H](O[C@H]3[C@H](O)[C@@H](O)[C@@H](O[C@H]4[C@H](O)[C@@H](O)C(O)O[C@@H]4CO)O[C@@H]3CO)O[C@@H]2CO)[C@H](O)[C@@H](O)[C@@H]1O (stereo partly drawn) [Maltotetraose, maltotetraose] | +++ | +++ | +++ | 19.2 | 35.1 | 1.8 | 0.0
OC[C@H]1O[C@H](OC[C@H]2O[C@H](O[C@H]3[C@H](O)[C@@H](O)C(O)O[C@@H]3CO)[C@H](O)[C@@H](O)[C@@H]2O)[C@H](O)[C@@H](O)[C@@H]1O (stereo partly drawn) [Panose, panose] | − | − | − | 0.0 | 0.0 | 1.2 | 8.2
OC[C@H]1O[C@H](O[C@H]2O[C@H](CO)[C@@H](O)[C@H](O)[C@H]2O[C@H]2O[C@H](CO)[C@@H](O)[C@H](O)[C@H]2O)[C@H](O)[C@@H](O)[C@@H]1O [Selaginose, selaginose] | − | − | − |  |  |  | 
OC[C@H]1O[C@@](CO)(O[C@H]2O[C@H](CO)[C@@H](O)[C@H](O)[C@H]2O)[C@@H](O)[C@@H]1O [Sucrose, sucrose] | − | − | − |  |  |  | 
OC[C@H]1O[C@H](O[C@H]2O[C@H](CO)[C@@H](O)[C@H](O)[C@H]2O)[C@H](O)[C@@H](O)[C@@H]1O [Trehalose, trehalose] | − | − | − |  |  |  | 
OC[C@H]1O[C@H](OC[C@H]2O[C@H](O[C@H]3[C@H](O)[C@@H](O)[C@@H](O[C@H]4[C@H](O)[C@@H](O)[C@@H](O[C@H]5[C@H](O)[C@@H](O)C(O)O[C@@H]5CO)O[C@@H]4CO)O[C@@H]3CO)[C@H](O)[C@@H](O)[C@@H]2O)[C@H](O)[C@@H](O)[C@@H]1O (stereo partly drawn) [X, α-isomaltosylmaltotriose] |  |  |  | 11.4 | 30.0 | 2.1 | 0.0
OC[C@H]1O[C@H](OC[C@H]2O[C@H](O[C@H]3[C@H](O)[C@@H](O)[C@@H](O[C@H]4[C@H](O)[C@@H](O)[C@@H](O[C@H]5[C@H](O)[C@@H](O)[C@@H](O[C@H]6[C@H](O)[C@@H](O)C(O)O[C@@H]6CO)O[C@@H]5CO)O[C@@H]4CO)O[C@@H]3CO)[C@H](O)[C@@H](O)[C@@H]2O)[C@H](O)[C@@H](O)[C@@H]1O (stereo partly drawn) [Y, α-isomaltosylmaltotetraose] |  |  |  | 26.8 | 1.4 | 0.0 | 0.0
isomaltosyl glucoside | − | − | − |  |  |  | 
maltoheptaose | +++ | +++ | +++ |  |  |  | 
maltohexaose | +++ | +++ | +++ | 4.6 | 0.0 | 0.0 | 0.0
maltopentaose | +++ | +++ | +++ | 34.4 | 3.5 | 0.0 | 0.0
maltotriose | ++ | ++ | ++ | 1.9 | 22.7 | 45.3 | 0.8

— US7211422B2, “Polypeptide having α-isomaltosylglucosaccharide synthase activity” (Kabushiki Kaisha Hayashibara Seibutsu Kagaku Kenkyujo, priority 2001, dated 2007)
